The first experiment deals with T1, human recombinant histamine H2 receptor (Homo sapiens, UniProt P25021).
T1 construct: expressed in transfected cells; host or cells: CHO-K1 cells
T1 sequence (P25021 whole entry): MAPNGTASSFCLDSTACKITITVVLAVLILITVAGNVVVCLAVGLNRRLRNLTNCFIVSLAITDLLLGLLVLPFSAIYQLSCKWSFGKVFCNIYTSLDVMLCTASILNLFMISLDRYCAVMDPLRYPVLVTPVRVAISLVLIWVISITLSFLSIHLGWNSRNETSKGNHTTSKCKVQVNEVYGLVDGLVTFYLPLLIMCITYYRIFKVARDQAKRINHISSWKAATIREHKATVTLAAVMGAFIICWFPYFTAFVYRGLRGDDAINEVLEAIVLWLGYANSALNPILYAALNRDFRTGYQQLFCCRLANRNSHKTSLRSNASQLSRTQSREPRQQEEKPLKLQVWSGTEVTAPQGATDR
The experiment in a line: Histamine H2 radioligand binding ([125I]aminopotentidine). The following applies: compound at 1 μM; CHO K1 cells; read-out: Histamine Binding (1 μM) H2, percent inhibition of specific binding. The procedure, abridged:
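CHO-K1 membranes expressing the receptor were incubated in 50 mM phosphate buffer pH 7.4 with 0.1 nM [125I]aminopotentidine for 120 minutes at 25° C., with nonspecific binding defined by 3 μM tiotidine. Compounds were tested at 1 μM (1% DMSO); bound radioligand was counted after filtration, values given as percent inhibition of specific binding.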
T4 sequence (P50406 whole entry): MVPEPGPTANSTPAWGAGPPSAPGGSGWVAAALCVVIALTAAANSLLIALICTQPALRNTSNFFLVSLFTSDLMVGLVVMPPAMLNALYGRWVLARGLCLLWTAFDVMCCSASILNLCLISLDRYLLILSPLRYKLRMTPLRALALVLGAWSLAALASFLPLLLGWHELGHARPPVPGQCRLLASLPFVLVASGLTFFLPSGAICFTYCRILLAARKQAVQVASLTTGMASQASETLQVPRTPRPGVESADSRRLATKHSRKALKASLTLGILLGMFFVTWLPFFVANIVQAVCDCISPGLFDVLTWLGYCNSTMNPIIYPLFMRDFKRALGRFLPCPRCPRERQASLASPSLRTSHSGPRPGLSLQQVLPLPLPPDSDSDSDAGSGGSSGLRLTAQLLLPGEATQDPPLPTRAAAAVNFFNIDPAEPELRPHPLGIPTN
For orientation: inhibition means the drop in the measured response relative to a control, in per cent. For `CN1CCc2c(c3cc(Cl)ccc3n2CCC#N)C1` [CD94, 3-(8-chloro-2-methyl-3,4-dihydro-1H-pyrido[4,3-b]indol-5(2H)-yl)propanenitrile], the inhibition at 1 µM is 2%.

For the molecule `Cc1ccc2c(c1)c1c(n2CC(=O)NC(C)(C)C)CCN(C)C1` [Compound 24, N-tert-butyl-2-(1,2,3,4-tetrahydro-2,8-dimethylpyrido[4,3-b]indol-5-yl)acetamide], the inhibition at 1 µM is 5%.

As to `CN1CCc2c(c3cc(Cl)ccc3n2CCO)C1` [CD89, 2-(8-chloro-2-methyl-3,4-dihydro-1H-pyrido[4,3-b]indol-5(2H)-yl)ethanol], the inhibition at 1 µM is 14%.

As to `Cc1ccc2c(c1)c1c(n2CCC(=O)NC2CCCCC2)CCN(C)C1` [Compound 3, N-cyclohexyl-3-(1,2,3,4-tetrahydro-2,8-dimethylpyrido[4,3-b]indol-5-yl)propanamide], the inhibition at 1 µM stood at 23%.

Turning to `Cc1ccc2c(c1)c1c(n2CCC(N)=O)CCN(C)C1` [Compound 46, 3-(1,2,3,4-tetrahydro-2,8-dimethylpyrido[4,3-b]indol-5-yl)propanamide], the inhibition at 1 µM was -5%.

On to `CN1CCc2c(c3cc(Cl)ccc3n2CCC(=O)OCc2ccccc2)C1` [Compound 19, benzyl 3-(8-chloro-1,2,3,4-tetrahydro-2-methylpyrido[4,3-b]indol-5-yl)propanoate], for which the inhibition at 1 µM is 81%.

Regarding `Cc1ccc2c(c1)c1c(n2CCC(=O)Nc2ccccc2)CCN(C)C1` [Compound 29], the inhibition at 1 µM came to 34%.

With `Cc1ccc2c(c1)c1c(n2CCC(=O)NC(C)(C)C)CCN(C)C1` [Compound 28], the inhibition at 1 µM amounted to 18%.

Still in this experiment, the particulars now being: read-out: Histamine Binding (1 μM) H2, percent inhibition of specific binding.
For the molecule `CN1CCc2c(c3cc(Cl)ccc3n2CCBr)C1` [CD88, 5-(2-bromoethyl)-8-chloro-2-methyl-2,3,4,5-tetrahydro-1H-pyrido[4,3-b]indole], the inhibition at 1 µM came out at 64%.

A further experiment has as its target T2, human recombinant adrenergic α2A receptor (Homo sapiens, UniProt P08913).
T2 construct: expressed in transfected cells; host or cells: insect Sf9 cells
T2 sequence (P08913 1-465): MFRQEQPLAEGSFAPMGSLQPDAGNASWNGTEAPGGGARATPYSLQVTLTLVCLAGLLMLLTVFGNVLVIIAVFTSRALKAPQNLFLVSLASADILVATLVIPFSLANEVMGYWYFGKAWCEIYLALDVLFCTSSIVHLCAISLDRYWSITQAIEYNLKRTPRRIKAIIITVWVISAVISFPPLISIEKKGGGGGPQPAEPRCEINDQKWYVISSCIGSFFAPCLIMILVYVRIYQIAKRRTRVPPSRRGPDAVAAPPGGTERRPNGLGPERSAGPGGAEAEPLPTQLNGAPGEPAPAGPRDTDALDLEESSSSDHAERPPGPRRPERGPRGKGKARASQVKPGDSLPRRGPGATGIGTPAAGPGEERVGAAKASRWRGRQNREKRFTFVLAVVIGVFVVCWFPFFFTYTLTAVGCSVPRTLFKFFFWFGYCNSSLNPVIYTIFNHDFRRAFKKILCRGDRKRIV
The experiment is described as follows: Adrenergic α2A radioligand binding ([3H]MK-912). Conditions: compound at 1 μM; insect Sf9 cells; read-out: Adrenergic (1 μM) α2A, percent inhibition of specific binding. The procedure, abridged: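 Membranes from Sf9 cells expressing the receptor were incubated with 1 nM [3H]MK-912 for 60 min at 25 °C in Tris-HCl pH 7.4 with MgCl2 and EDTA. Nonspecific binding defined by 10 μM WB-4101; compounds tested at ≤1 μM (1% DMSO), reported as percent inhibition of specific binding.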
For `CN1CCc2c(c3cc(Cl)ccc3n2CCC#N)C1` [CD94, 3-(8-chloro-2-methyl-3,4-dihydro-1H-pyrido[4,3-b]indol-5(2H)-yl)propanenitrile], the inhibition at 1 µM worked out at 73%.

As for `Cc1ccc2c(c1)c1c(n2CC(=O)NC(C)(C)C)CCN(C)C1` [Compound 24, N-tert-butyl-2-(1,2,3,4-tetrahydro-2,8-dimethylpyrido[4,3-b]indol-5-yl)acetamide], the inhibition at 1 µM was determined as 10%.

In the case of `CN1CCc2c(c3cc(Cl)ccc3n2CCO)C1` [CD89, 2-(8-chloro-2-methyl-3,4-dihydro-1H-pyrido[4,3-b]indol-5(2H)-yl)ethanol], the inhibition at 1 µM came out at 70%.

Turning to `Cc1ccc2c(c1)c1c(n2CCC(=O)NC2CCCCC2)CCN(C)C1` [Compound 3, N-cyclohexyl-3-(1,2,3,4-tetrahydro-2,8-dimethylpyrido[4,3-b]indol-5-yl)propanamide], the inhibition at 1 µM stood at 14%.

`Cc1ccc2c(c1)c1c(n2CCC(N)=O)CCN(C)C1` [Compound 46, 3-(1,2,3,4-tetrahydro-2,8-dimethylpyrido[4,3-b]indol-5-yl)propanamide]: the inhibition at 1 µM came to 44%.

In the case of `CN1CCc2c(c3cc(Cl)ccc3n2CCC(=O)OCc2ccccc2)C1` [Compound 19, benzyl 3-(8-chloro-1,2,3,4-tetrahydro-2-methylpyrido[4,3-b]indol-5-yl)propanoate], the inhibition at 1 µM was 86%.

As for `Cc1ccc2c(c1)c1c(n2CCC(=O)Nc2ccccc2)CCN(C)C1` [Compound 29], the inhibition at 1 µM came to 78%.

With `Cc1ccc2c(c1)c1c(n2CCC(=O)NC(C)(C)C)CCN(C)C1` [Compound 28], the inhibition at 1 µM was 44%.

Staying with this experiment, now noted: read-out: Adrenergic (1 μM) α2A, percent inhibition of specific binding.
Take `CN1CCc2c(c3cc(Cl)ccc3n2CCBr)C1` [CD88, 5-(2-bromoethyl)-8-chloro-2-methyl-2,3,4,5-tetrahydro-1H-pyrido[4,3-b]indole]: the inhibition at 1 µM was 80%.

The target of another experiment is T3, human recombinant serotonin (5-Hydroxytryptamine) 5-HT2C receptor (Homo sapiens, UniProt P28335).
T3 construct: expressed in transfected cells; host or cells: CHO-K1 cells
T3 sequence (P28335 33-458): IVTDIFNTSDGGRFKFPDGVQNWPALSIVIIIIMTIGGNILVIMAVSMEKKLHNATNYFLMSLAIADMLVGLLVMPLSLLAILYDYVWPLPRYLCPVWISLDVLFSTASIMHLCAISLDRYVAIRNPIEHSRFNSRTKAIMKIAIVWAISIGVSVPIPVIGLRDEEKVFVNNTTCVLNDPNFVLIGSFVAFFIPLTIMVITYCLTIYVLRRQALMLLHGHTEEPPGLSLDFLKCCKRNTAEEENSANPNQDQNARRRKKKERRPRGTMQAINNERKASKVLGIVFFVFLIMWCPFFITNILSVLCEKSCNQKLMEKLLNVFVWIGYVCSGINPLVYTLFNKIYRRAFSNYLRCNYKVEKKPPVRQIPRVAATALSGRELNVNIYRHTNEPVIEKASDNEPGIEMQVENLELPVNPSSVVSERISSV
The experiment is described as follows: Serotonin 5-HT2C radioligand binding ([3H]Mesulergine). The following applies: compound at 1 μM; CHO-K1 cells; read-out: Serotonin (1 μM) 5-HT2C, percent inhibition of specific binding. The gist of the method: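 Membranes from CHO-K1 cells expressing the human receptor were incubated 60 min at 25 °C with 1 nM [3H]mesulergine in 50 mM Tris-HCl pH 7.4 with ascorbic acid and pargyline; 1 μM mianserin defined non-specific binding.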
Take `CN1CCc2c(c3cc(Cl)ccc3n2CCC#N)C1` [CD94, 3-(8-chloro-2-methyl-3,4-dihydro-1H-pyrido[4,3-b]indol-5(2H)-yl)propanenitrile]: the inhibition at 1 µM was found to be 71%.

For the molecule `Cc1ccc2c(c1)c1c(n2CC(=O)NC(C)(C)C)CCN(C)C1` [Compound 24, N-tert-butyl-2-(1,2,3,4-tetrahydro-2,8-dimethylpyrido[4,3-b]indol-5-yl)acetamide], the inhibition at 1 µM was found to be 21%.

Consider `CN1CCc2c(c3cc(Cl)ccc3n2CCO)C1` [CD89, 2-(8-chloro-2-methyl-3,4-dihydro-1H-pyrido[4,3-b]indol-5(2H)-yl)ethanol], for which the inhibition at 1 µM was 84%.

Turning to `Cc1ccc2c(c1)c1c(n2CCC(=O)NC2CCCCC2)CCN(C)C1` [Compound 3, N-cyclohexyl-3-(1,2,3,4-tetrahydro-2,8-dimethylpyrido[4,3-b]indol-5-yl)propanamide], the inhibition at 1 µM came to 29%.

Consider `Cc1ccc2c(c1)c1c(n2CCC(N)=O)CCN(C)C1` [Compound 46, 3-(1,2,3,4-tetrahydro-2,8-dimethylpyrido[4,3-b]indol-5-yl)propanamide], for which the inhibition at 1 µM amounted to 65%.

As to `CN1CCc2c(c3cc(Cl)ccc3n2CCC(=O)OCc2ccccc2)C1` [Compound 19, benzyl 3-(8-chloro-1,2,3,4-tetrahydro-2-methylpyrido[4,3-b]indol-5-yl)propanoate], the inhibition at 1 µM came to 96%.

Turning to `Cc1ccc2c(c1)c1c(n2CCC(=O)Nc2ccccc2)CCN(C)C1` [Compound 29], the inhibition at 1 µM turned out to be 73%.

For the molecule `Cc1ccc2c(c1)c1c(n2CCC(=O)NC(C)(C)C)CCN(C)C1` [Compound 28], the inhibition at 1 µM was determined as 35%.

The same experiment, now with this note: read-out: Serotonin (1 μM) 5-HT2C, percent inhibition of specific binding.
With `CN1CCc2c(c3cc(Cl)ccc3n2CCBr)C1` [CD88, 5-(2-bromoethyl)-8-chloro-2-methyl-2,3,4,5-tetrahydro-1H-pyrido[4,3-b]indole], the inhibition at 1 µM was 84%.

The next experiment concerns the target T4, human recombinant serotonin (5-Hydroxytryptamine) 5-HT6 receptor (Homo sapiens, UniProt P50406).
T4 construct: expressed in transfected cells; host or cells: human HeLa cells
The experiment is described as follows: Serotonin 5-HT6 radioligand binding ([3H]LSD). The following applies: compound at 1 μM; HeLa cells; read-out: Serotonin (1 μM) 5-HT6, percent inhibition of specific binding. The procedure, abridged:
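HeLa membranes expressing receptor, in 50 mM Tris-HCl pH 7.4 with 150 mM NaCl, 2 mM ascorbate, 0.001% BSA, incubated with 1.5 nM [3H]LSD for 120 min at 37 °C. Nonspecific binding defined with 5 μM 5-HT.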
Take `CN1CCc2c(c3cc(Cl)ccc3n2CCC#N)C1` [CD94, 3-(8-chloro-2-methyl-3,4-dihydro-1H-pyrido[4,3-b]indol-5(2H)-yl)propanenitrile]: the inhibition at 1 µM turned out to be 40%.

With `Cc1ccc2c(c1)c1c(n2CC(=O)NC(C)(C)C)CCN(C)C1` [Compound 24, N-tert-butyl-2-(1,2,3,4-tetrahydro-2,8-dimethylpyrido[4,3-b]indol-5-yl)acetamide], the inhibition at 1 µM was determined as 6%.

For the molecule `CN1CCc2c(c3cc(Cl)ccc3n2CCO)C1` [CD89, 2-(8-chloro-2-methyl-3,4-dihydro-1H-pyrido[4,3-b]indol-5(2H)-yl)ethanol], the inhibition at 1 µM was 36%.

In the case of `Cc1ccc2c(c1)c1c(n2CCC(=O)NC2CCCCC2)CCN(C)C1` [Compound 3, N-cyclohexyl-3-(1,2,3,4-tetrahydro-2,8-dimethylpyrido[4,3-b]indol-5-yl)propanamide], the inhibition at 1 µM came to 19%.

For the molecule `Cc1ccc2c(c1)c1c(n2CCC(N)=O)CCN(C)C1` [Compound 46, 3-(1,2,3,4-tetrahydro-2,8-dimethylpyrido[4,3-b]indol-5-yl)propanamide], the inhibition at 1 µM is 11%.

Turning to `CN1CCc2c(c3cc(Cl)ccc3n2CCC(=O)OCc2ccccc2)C1` [Compound 19, benzyl 3-(8-chloro-1,2,3,4-tetrahydro-2-methylpyrido[4,3-b]indol-5-yl)propanoate], the inhibition at 1 µM amounted to 100%.

`Cc1ccc2c(c1)c1c(n2CCC(=O)Nc2ccccc2)CCN(C)C1` [Compound 29]: the inhibition at 1 µM came out at 43%.

With `Cc1ccc2c(c1)c1c(n2CCC(=O)NC(C)(C)C)CCN(C)C1` [Compound 28], the inhibition at 1 µM came out at 47%.

Staying with this experiment, now noted: read-out: Serotonin (1 μM) 5-HT6, percent inhibition of specific binding.
Regarding `CN1CCc2c(c3cc(Cl)ccc3n2CCBr)C1` [CD88, 5-(2-bromoethyl)-8-chloro-2-methyl-2,3,4,5-tetrahydro-1H-pyrido[4,3-b]indole], the inhibition at 1 µM came to 87%.

These data come from US9115137B2, “2,3,4,5-tetrahydro-1H-pyrido[4,3-B]indole compounds and methods of use thereof” (priority 2008, dated 2015).
